Legend:
Type in all cases: cell-based
[1] = test system: SK-N-SH neuroblastoma cells; assay: Anti-proliferative assay (cell-titre luminescent), SK-N-SH; conditions: Homo sapiens, 72 hours, luminescence
Protocol: (§1) The ability of compounds 2002, 2009 and 2013-2064 to inhibit the proliferation of cancer cells representative of neuroblastoma, melanoma, prostate cancer, colorectal cancer, non-small cell lung carcinoma, and triple negative breast cancer was assessed. These studies were conducted by contract research (GVK-BIO). Briefly, a pre-determined number of cells as calculated from cell growth assays for each of the cell lines employed were seeded into their respective culture medium (using ATCC culture parameters—http://www.atcc.org) and cultured for 24 h at 37° C. and 5% CO2 in 96-well culture plates. Once attached, each cell line was then exposed to various concentrations of each respective analogue (30, 10, 3, 1, 0.3 and 0.1 μM), cultured for a further 72 hours and exposed to cell-titre luminescent reagent (100 μL/well) for a further 30 minutes). Luminescence was captured using an EnVision multilabel reader and the data for each analogue concentration compared against no treatment control. Cell viability was normalized to control (vehicle alone) and dose-response curves, and half maximal effective concentration (EC50) values were determined using Graph Pad Prism 6 (nonlinear regression sigmoidal dose-response variable slope).

SK-Mel-28 melanoma cells = assay: Anti-proliferative assay (cell-titre luminescent), SK-Mel-28; conditions: Homo sapiens; SK-Mel-28, 72 hours, luminescence
Protocol: as §1

[2] = test system: DU145 prostate cancer cells; assay: Anti-proliferative assay (cell-titre luminescent), DU145; conditions: Homo sapiens, DU-145; DU145, 72 hours, luminescence
Protocol: as §1

[3] = test system: PC3 prostate cancer cells; assay: Anti-proliferative assay (cell-titre luminescent), PC3; conditions: PC3, 72 hours, luminescence
Protocol: as §1

[4] = test system: CaCo2 colorectal cancer cells; assay: Anti-proliferative assay (cell-titre luminescent), CaCo2; conditions: Homo sapiens, Caco-2; CaCo2, 72 hours, luminescence
Protocol: as §1

A549 lung (NSLC) cells = assay: Anti-proliferative assay (cell-titre luminescent), A549; conditions: Homo sapiens; A549, 72 hours, luminescence
Protocol: as §1

[5] = test system: MDA-MB-231 breast cancer cells; assay: Anti-proliferative assay (cell-titre luminescent), MDA-MB-231; conditions: Homo sapiens; MDA-MB-231, 72 hours, luminescence
Protocol: as §1

| SMILES | IC50 [1] [µM] | IC50 (SK-Mel-28 melanoma cells) [µM] | IC50 [2] [µM] | IC50 [3] [µM] | IC50 [4] [µM] | IC50 (A549 lung (NSLC) cells) [µM] | IC50 [5] [µM] |
| --- | --- | --- | --- | --- | --- | --- | --- |
| CCOc1ccc2c(c1)c(C(=O)N1CCN(CCc3ccc(F)cc3)CC1)c(C)n2CCCN(CC)CC [Compound 2063, (1-(3-(diethylamino)propyl)-5-ethoxy-2-methyl-1H-indol-3-yl)(4-(4-fluorophenethyl)piperazin-1-yl)methanone] | 5.3 | 3.5 | 13 | 7.2 | 4.1 | 10.9 | 3 |
| COc1ccc2c(c1)c(/C=C/C(=O)N1CCN(CCc3cccc(F)c3)CC1)c(C)n2CCCN1CCN(C)CC1 [Compound 2032, (E)-1-(4-(3-fluorophenethyl)piperazin-1-yl)-3-(5-methoxy-2-methyl-1-(3-(4-methylpiperazin-1-yl)propyl)-1H-indol-3-yl)prop-2-en-1-one] | 4.7 | 4.3 | 7.7 | 6.8 | 5.6 | 9 | 4.9 |
| CCOc1ccc2c(c1)c(C(=O)N1CCN(CCc3ccc(F)cc3)CC1)c(C)n2CCCN(C)C [Compound 2062, (1-(3-(dimethylamino)propyl)-5-ethoxy-2-methyl-1H-indol-3-yl)(4-(4-fluorophenethyl)piperazin-1-yl)methanone] | 20.6 | 9 | > 30 | 13.1 | 18.6 | > 30 | 8.1 |
| Cc1c(/C=C/C(=O)N2CCN(CCc3ccccc3)CC2)c2ccccc2n1CCCN(C)C [Compound 2017, (E)-3-(1-(3-(dimethylamino)propyl)-2-methyl-1H-indol-3-yl)-1-(4-phenethylpiperazin-1-yl)prop-2-en-1-one] | 17.6 | 8.7 | 15.7 | 11.5 | 12.6 | 13.6 | 18.5 |
| COc1cccc(CCN2CCN(C(=O)c3c(C)n(CCCN(C)C)c4ccccc34)CC2)c1 [Compound 2042, (1-(3-(dimethylamino)propyl)-2-methyl-1H-indol-3-yl)(4-(3-methoxyphenethyl)piperazin-1-yl)methanone] | > 30 | > 30 | > 30 | > 30 | > 30 | > 30 | > 30 |
| Cc1c(C(=O)N2CCN(CCc3cccc(F)c3)CC2)c2ccccc2n1CCCN(C)C [Compound 2041] | 13.2 | 17.1 | > 30 | > 30 | > 30 | > 30 | > 30 |
| COc1cccc(CCN2CCN(C(=O)/C=C/c3c(C)n(CCCN4CCN(C)CC4)c4ccc(OC)cc34)CC2)c1 [Compound 2033, (E)-3-(5-methoxy-2-methyl-1-(3-(4-methylpiperazin-1-yl)propyl)-1H-indol-3-yl)-1-(4-(3-methoxyphenethyl)piperazin-1-yl)prop-2-en-1-one] | 3.3 | 4.2 | 18.6 | 6.8 | 4.2 | 10.8 | 4.5 |
| Cc1c(C(=O)N2CCN(CCc3ccc(F)cc3)CC2)c2ccccc2n1CCCN(C)C [Compound 2038, (1-(3-(dimethylamino)propyl)-2-methyl-1H-indol-3-yl)(4-(4-fluorophenethyl)piperazin-1-yl)methanone] | > 30 | > 30 | > 30 | > 30 | > 30 | > 30 | > 30 |
| COc1ccc2c(c1)c(/C=C/C(=O)N1CCN(CCc3cccc(F)c3)CC1)c(C)n2CCCN(C)C [Compound 2021, (E)-3-(1-(3-(dimethylamino)propyl)-5-methoxy-2-methyl-1H-indol-3-yl)-1-(4-(3-fluorophenethyl)piperazin-1-yl)prop-2-en-1-one] | 5.4 | 4.3 | 6.9 | 7.2 | 7.4 | 5.4 | 4.8 |
| COc1ccc2c(c1)c(C(=O)N1CCN(CCc3ccccc3)CC1)c(C)n2CCCN1CCN(C)CC1 [Compound 2061, (5-methoxy-2-methyl-1-(3-(4-methylpiperazin-1-yl)propyl)-1H-indol-3-yl)(4-phenethylpiperazin-1-yl)methanone] | > 30 | 8.7 | > 30 | > 30 | > 30 | > 30 | > 30 |
| COc1ccc2c(c1)c(C(=O)N1CCN(CCc3ccccc3)CC1)c(C)n2CCCN(C)C [Compound 2049, (1-(3-(dimethylamino)propyl)-5-methoxy-2-methyl-1H-indol-3-yl)(4-phenethylpiperazin-1-yl)methanone] | 8.9 | 8.7 | > 30 | 8.6 | > 30 | > 30 | 7.5 |
| COc1ccc(CCN2CCN(C(=O)c3c(C)n(CCCN(C)C)c4ccccc34)CC2)cc1 [Compound 2039, (1-(3-(dimethylamino)propyl)-2-methyl-1H-indol-3-yl)(4-(4-methoxyphenethyl)piperazin-1-yl)methanone] | 12.6 | 11 | 72.6 | 7.6 | 4.8 | 44 | 16.6 |
| CCN(CC)CCCn1c(C)c(/C=C/C(=O)N2CCN(CCc3ccccc3)CC2)c2cc(OC)ccc21 [Compound 2028, (E)-3-(1-(3-(diethylamino)propyl)-5-methoxy-2-methyl-1H-indol-3-yl)-1-(4-phenethylpiperazin-1-yl)prop-2-en-1-one] | 2.7 | 2 | 5.3 | 5.3 | 4.1 | 4.2 | 5.2 |
| COc1ccc2c(c1)c(/C=C/C(=O)N1CCN(CCc3ccc4c(c3)OCO4)CC1)c(C)n2CCCN(C)C [Compound 2020, (E)-1-(4-(2-(benzo[d][1,3]dioxol-5-yl)ethyl)piperazin-1-yl)-3-(1-(3-(dimethylamino)propyl)-5-methoxy-2-methyl-1H-indol-3-yl)prop-2-en-1-one] | 3.9 | 3.5 | 5.7 | 5.1 | 4.5 | 3.5 | 5.1 |
| COc1ccc2c(c1)c(C(=O)N1CCN(CCc3cccc(F)c3)CC1)c(C)n2CCCN(C)C [Compound 2047, (1-(3-(dimethylamino)propyl)-5-methoxy-2-methyl-1H-indol-3-yl)(4-(3-fluorophenethyl)piperazin-1-yl)methanone] | 10.9 | 13.5 | 13.6 | 14.9 | 8.8 | 14.3 | 12 |
| CCOc1ccc2c(c1)c(/C=C/C(=O)N1CCN(CCc3ccc(F)cc3)CC1)c(C)n2CCCN(CC)CC [Compound 2036, (E)-3-(1-(3-(diethylamino)propyl)-5-ethoxy-2-methyl-1H-indol-3-yl)-1-(4-(4-fluorophenethyl)piperazin-1-yl)prop-2-en-1-one] | 1.5 | 3.2 | 4.7 | 4.9 | 5.1 | 4.3 | 4.4 |
| COc1ccc2c(c1)c(C(=O)N1CCN(CCc3ccc4c(c3)OCO4)CC1)c(C)n2CCCN(C)C [Compound 2046, (4-(2-(benzo[d][1,3]dioxol-5-yl)ethyl)piperazin-1-yl)(1-(3-(dimethylamino)propyl)-5-methoxy-2-methyl-1H-indol-3-yl)methanone] | 7.9 | 4.4 | 13.3 | 20.3 | 8 | 14.4 | 11.3 |
| CCN(CC)CCCn1c(C)c(C(=O)N2CCN(CCc3ccc(F)cc3)CC2)c2cc(OC)ccc21 [Compound 2050, (1-(3-(diethylamino)propyl)-5-methoxy-2-methyl-1H-indol-3-yl)(4-(4-fluorophenethyl)piperazin-1-yl)methanone] | 21.4 | 5.3 | 15.9 | 26.4 | 10.4 | 19.8 | 14 |
| COc1ccc2c(c1)c(/C=C/C(=O)N1CCN(CCc3ccc(F)cc3)CC1)c(C)n2CCCN1CCN(C)CC1 [Compound 2029, (E)-1-(4-(4-fluorophenethyl)piperazin-1-yl)-3-(5-methoxy-2-methyl-1-(3-(4-methylpiperazin-1-yl)propyl)-1H-indol-3-yl)prop-2-en-1-one] | 2.8 | 5.7 | 4.2 | 2.9 | 4.4 | 4.5 | 3.3 |

— patent US20170157135A1 (Novogen Limited, priority 2013, published 2017)
